Measurements: patent US12070452B2, “Compounds targeting HSP110 protein for cancer treatment” (INSERM (Institut National de la Santé et de la Recherche …, priority 2018, dated 2024)
“Also recorded” adds a separate entry of the source.

What was measured:
HCT116 tumors = assay: Immunofluorescence of cleaved caspase-3 in HCT116 tumor slides (NOD/SCID); type: in vivo, human; conditions: NOD/SCID model
Protocol: FIG. 7C: Immunofluorescence assay of Cleaved caspase-3 (C3C) in HCT116 from NOD mice tumors treated with VEH (column on the left) or with compound 33 (column on the right). […] (Ordinate: Caspase-3 cleaved relative fluorescence in percentage). Statistical analysis has been performed by ANOVA (***=p=0.0003). Scale bar=50 μm.
(§1) Two different colorectal mouse models were used: a syngeneic model for which mouse colon cancer CT-26 cells were injected into Balb/c mice and a NOD/SCID model in which mice were implanted with human colorectal cancer HCT116 cells (FIG. 4 A-B). When the tumor reached a size of −2 mm, mice were treated intraperitoneally with the compound 33 at 5 mg/Kg (BALB/c n=11, NOD SCID n=6) or corn oil 5% DMSO (BALB/c n=10, NOD SCID n=6), every three days until the end of the experiment. The compound 33 was dissolved in DMSO, then diluted 20 times in corn oil (Sigma Aldrich-C8267) and sterilized by filtration with PTFE membrane Millex 0.2 μm (Millipore-SLFG025LS). Tumors were analyzed before reaching 2000 mm3. Treatment by compound 33 induces a decrease in tumor growth of 40% and 60% in the Balb/c and NOD mice, respectively (FIGS. 6A and 6B).

[1] = test system: tumor-infiltrating macrophages; assay: Macrophage M1/M2-like markers in tumor slides, CT-26-Balb/c model; type: in vivo, mouse
Protocol: FIG. 8A: Pro-inflammatory M1-like macrophage markers pSTAT1 and NOS2 determined in tumor slides from CT-26-Balb/c mice model. Animals were treated or not every 3 days with the compound 33 (5 mg/Kg) Statistical analysis has been performed by ANOVA (***=p=0.0051). […] FIG. 9A: Anti-inflammatory macrophage M2-like markers Arg1 and pSTAT6 determined in tumor slides from CT-26-Ballb/c mice model. Animals were treated or not every 3 days with the compound 33 (5 mg/Kg). Statistical analysis has been performed by ANOVA (***=p=0.0031). […] Anti-p-STAT1 (1/200; polyclonal, Cell Signaling), anti-SOCS1 (Suppressor of Cytokine Signaling protein 1, 1/200; polyclonal, Santa Cruz), and anti-NOS2 (Nitric Oxide Synthase 2, 1/200; polyclonal Santa Cruz) antibodies were used for M1-like macrophage markers. Anti-pSTAT6 (1/200; polyclonal Santa Cruz), anti-arginase-1 (1/200; polyclonal Santa Cruz) and anti-ALOX15 (Arachidonate 15-LipOXygenase, 1/200; monoclonal Santa Cruz) antibodies were used for M2-like macrophage markers. Primary antibodies were detected using Alexa fluor 488 or Alexa fluor 568-coupled secondary antibodies (1/500, Invitrogen). Nuclei were stained with 10 μl of ProLong Gold Antifade Mountant with DAPI (Molecular Probes). The same protocol was used for NOD/SCID mice except that mice were killed after 16 days after HCT116 cells injection. For the Balb/c model, mice were sacrificed at day […] (day 1 being the first day of treatment). […] Especially the pSTAT1 relative expression measured is about 1.5 for compound 33 compared to 1.0 for the control, the NOS2 relative expression measured is about 1 for compound 33 compared to 2.5 for the control (FIG. 8A) in CT-26-Balb/c mice model. The pSTAT1 relative expression measured is about 1.5 for compound 33 compared to 0 for the control and the NOS2 relative expression measured is about 20 for compound 33 compared to 2 for the control (FIG. 8B) in NOD/SCID mice model.

[2] = test system: mouse colon cancer CT-26 cells; assay: Tumor growth, syngeneic CT-26 model in Balb/c mice; type: in vivo; conditions: CT-26, 5 mg/Kg intraperitoneally every three days
Protocol: FIG. 6A: Tumor volume monitoring of CT26 cells in Balb/c mice control-treated (Ctrl—line with circle) and treated with the compound 33 (5 mg/kg—line with square). Animals were treated by intraperitoneally injection every three days. (Abscissa: Days from 0 to 16 in day; Ordinate: Tumor volume in mm^3 from 0 to 200 (scale 500))
as §1

CT26 cells = assay: Flow cytometric analysis of cell death (Annexin V / 7-AAD) in CT26 cells; type: cell-based, mouse; conditions: 10 μM, 96 h
Protocol: FIG. 5A: Flow cytometric analysis of cell death in CT26 cells treated with the compound 33 (at the bottom left), compound 52 (at the bottom middle), comparative compound 61 (at the bottom right) at 10 μM during 96 h compared with Control (DMSO) (at the top left), and Cisplatin (at the top middle and top right). Live cells were double negative for 7-AAD (Y axis) and Annexin V (X axis), early apoptotic cells were positive for Annexin V, late apoptotic cells were positive for Annexin V and 7-AAD ([…]) and dead cells were positive for 7-AAD only.
FIG. 5B: Quantification of cell viability (in percentage) from flow cytometry data are represented (Control, cells, compounds 33, 52 and 61 from the left to the right bars). (Abscissa Negativity of 7-AAD; Ordinate Negativity of Annexin V).
We then analyzed cell death in CT26 cells treated with 10 μM during 96 h of compounds 33, 52 and 61 by flow cytometry. Cells were also treated with a well know anti-cancer compound, called cisplatin. Cells were marked for 7-aminoactinomycin D, which exclusively bind on death cells and for Annexin V, a well-known indicators of early stage apoptosis, thanks to its ability to bind to phosphatidylserine.

[3] = Body and spleen weights of mice during treatment; type: in vivo; conditions: immunodeficient mice, 10 or 20 mg/kg intraperitoneally
Protocol: FIG. 11C: Body weight monitoring of Immunodeficient mice treated intraperitoneally with the compound 52 (=inhibitor 52) at 10 or 20 mg/kg or with vehicle at the same frequency. (Abscissa: Days from 0 to 20 in day; Ordinate: Body weight in g from 24 to 34 g (scale 2)).
FIG. 11D: Spleen weights monitoring of Immunodeficient mice treated intraperitoneally with the compound 52 (=inhibitor 52) at 10 or 20 mg/kg or with vehicle at the same frequency. (Abscissa: Treatments vehicle, 10 mg/kg or 20 mg/kg of compound 52; Ordinate: Spleen weight in mg from 20 to 100 mg (scale 20)).

[4] = CT-26-Balb/c model, control 1.0

With `COc1ccc(-c2ncc(-c3ncc(-c4cc(OC)c(OC)c(OC)c4)cc3/C=C/c3ccccc3)cc2C)cc1OC` [compound 33, (E)-6′-(3,4-Dimethoxyphenyl)-5′-methyl-3-styryl-5-(3,4,5-trimethoxyphenyl)-2,3′-bipyridine] as the molecule, how does the “tumor cell apoptosis (cleaved caspase-3 staining)” value (HCT116 tumors) read?
The value was “increase in tumor cell apoptosis”.

What about the “SOCS1 expression (M1 marker)” value ([1]; Balb/c (syngeneic) model) of the same molecule?
Its value is “increase”.

And the “pSTAT1 relative expression (M1 marker)” value ([1]; CT-26-Balb/c model, 5 mg/Kg, control 1.0)?
The value was “about 1.5”.

What about the “NOS2 relative expression (M1 marker)” value ([1]; CT-26-Balb/c model, 5 mg/Kg, control 2.5 as printed) of the same molecule?
The value was “about 1”.

What about the “Arg1 relative expression (M2 marker)” value [1, 4] of the same molecule?
Its value is “about 0.5”.

And the “pSTAT6 relative expression (M2 marker)” value [1, 4]?
Its value is “about 0.5”.

And the “decrease in tumor growth” value [2]?
Its value is 40%.

And the “cell death / apoptosis (Annexin V and 7-AAD marking)” value (CT26 cells)?
Its value is “don't seem to be marked; also recorded: does not allow detecting significally apoptosis”.

Which results are given for `COc1cc(-c2cnc(-c3cnc(-c4cc(OC)c(OC)c(OC)c4)c(C)c3)c(/C=C/c3ccccc3)c2)cc(OC)c1OC` [compound 52, (E)-5′-Methyl-3-styryl-5,6′-bis(3,4,5-trimethoxyphenyl)-2,3′-bipyridine]?
toxicity (body and spleen weights) [3]: no toxicity; cell death / apoptosis (Annexin V and 7-AAD marking) (CT26 cells): don't seem to be marked; also recorded: does not allow detecting significally apoptosis
